# In patent US20110230481A2, “DERIVATIVES OF TETRABROMOBENZIMIDAZOLE, A PROCESS FOR THE PREPARATION THEREOF, A PHARMACEUTICAL COMPOSITION COMPRISING THE SAME, A METHOD OF USING THE SAME, A METHOD FOR MODULATING OR REGULATING SERINE/THREONINE KINASES, AND SERINE/THREONINE KINASES MODULATING AGENT” (SELVITA S.A., priority 2009, published 2011):
# Experiments:
# Experiment in all cases: KINOMEscan Max
# Type in all cases: binding
# [1] = biological target: T1, MUSK (Homo sapiens, UniProt O15146)
# T1 construct: purchased Ambit Kinomescan (contract screening)
# Procedure, shortened: (§1)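 Steps: mix DNA-tagged kinase, immobilized active-site ligand and compound; let compound compete with ligand for the kinase; quantify the kinase retained by qPCR on its DNA tag.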
# [2] = biological target: T2, PFCDPK1(P.falciparum) (Plasmodium falciparum, UniProt P62344)
# T2 construct: purchased Ambit Kinomescan (contract screening)
# Procedure, shortened: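 DNA-tagged kinase + immobilized active-site directed ligand + test compound combined; ligand-bound kinase quantified by qPCR of tag. Competition binding format.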
# [3] = biological target: T3, PDGFRA (Homo sapiens, UniProt P16234)
# T3 construct: DNA tag (qPCR read-out)
# Procedure, shortened: as §1
# [4] = biological target: ZAK (Homo sapiens, UniProt Q9NYL2)
# ZAK, sequence (Q9NYL2 whole entry): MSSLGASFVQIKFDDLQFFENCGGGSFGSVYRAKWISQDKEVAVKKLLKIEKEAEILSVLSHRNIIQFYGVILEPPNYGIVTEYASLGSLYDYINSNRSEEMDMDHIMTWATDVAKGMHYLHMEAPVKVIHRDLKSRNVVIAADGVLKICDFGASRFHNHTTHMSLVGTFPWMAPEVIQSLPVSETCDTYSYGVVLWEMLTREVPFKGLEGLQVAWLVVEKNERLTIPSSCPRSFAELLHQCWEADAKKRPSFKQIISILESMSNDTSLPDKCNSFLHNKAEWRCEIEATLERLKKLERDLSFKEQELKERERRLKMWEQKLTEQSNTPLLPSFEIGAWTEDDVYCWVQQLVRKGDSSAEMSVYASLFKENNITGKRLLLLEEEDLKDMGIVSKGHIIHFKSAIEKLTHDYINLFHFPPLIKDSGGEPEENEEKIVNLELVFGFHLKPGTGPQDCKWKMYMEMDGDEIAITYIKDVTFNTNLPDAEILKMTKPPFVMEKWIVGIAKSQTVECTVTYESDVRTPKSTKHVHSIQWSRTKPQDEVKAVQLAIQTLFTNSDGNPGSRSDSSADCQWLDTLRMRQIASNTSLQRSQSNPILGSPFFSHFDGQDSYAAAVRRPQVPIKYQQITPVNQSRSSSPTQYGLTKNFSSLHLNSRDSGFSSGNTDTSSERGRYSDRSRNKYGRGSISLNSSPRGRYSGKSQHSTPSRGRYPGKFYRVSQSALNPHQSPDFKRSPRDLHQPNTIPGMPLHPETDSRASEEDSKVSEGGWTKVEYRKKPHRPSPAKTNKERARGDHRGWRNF
# Procedure, shortened: as §1
# [5] = biological target: T4, EGFR(E746-A750del) (Homo sapiens, UniProt P00533, DEL746-750); conditions: 1 μM
# T4 construct: purchased Ambit (KINOMEscan Max service)
# Procedure, shortened: as §1
# [6] = biological target: T5, CSNK1G1 (Homo sapiens, UniProt Q9HCP0); conditions: 1 μM
# T5 construct: purchased Ambit (KINOMEscan Max panel service)
# Procedure, shortened: as §1
# [7] = biological target: T6, LKB1 (Homo sapiens, UniProt Q15831)
# T6 construct: purchased Ambit Kinomescan (contract screening)
# Procedure, shortened: as §1
# [8] = biological target: T7, JAK1(JH1domain-catalytic) (Homo sapiens, UniProt P23458); conditions: 1 μM
# T7 construct: JAK1(JH1domain-catalytic); purchased Ambit (KINOMEscan Max service)
# T7 sequence (P23458 875-1153 limits assumed): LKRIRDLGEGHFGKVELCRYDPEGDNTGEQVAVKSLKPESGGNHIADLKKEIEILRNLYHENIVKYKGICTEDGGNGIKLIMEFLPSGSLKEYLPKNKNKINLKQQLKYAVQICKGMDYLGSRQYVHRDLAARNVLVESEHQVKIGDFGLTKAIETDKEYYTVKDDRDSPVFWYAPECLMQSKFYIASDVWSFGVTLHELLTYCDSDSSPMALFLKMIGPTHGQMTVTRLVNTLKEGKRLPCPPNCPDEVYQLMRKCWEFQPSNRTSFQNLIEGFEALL
# Procedure, shortened: as §1
# [9] = biological target: MEK6 (Homo sapiens, UniProt P52564)
# Procedure, shortened: as §1
# [10] = biological target: NEK2 (Homo sapiens, UniProt P51955)
# NEK2, sequence (P51955 whole entry): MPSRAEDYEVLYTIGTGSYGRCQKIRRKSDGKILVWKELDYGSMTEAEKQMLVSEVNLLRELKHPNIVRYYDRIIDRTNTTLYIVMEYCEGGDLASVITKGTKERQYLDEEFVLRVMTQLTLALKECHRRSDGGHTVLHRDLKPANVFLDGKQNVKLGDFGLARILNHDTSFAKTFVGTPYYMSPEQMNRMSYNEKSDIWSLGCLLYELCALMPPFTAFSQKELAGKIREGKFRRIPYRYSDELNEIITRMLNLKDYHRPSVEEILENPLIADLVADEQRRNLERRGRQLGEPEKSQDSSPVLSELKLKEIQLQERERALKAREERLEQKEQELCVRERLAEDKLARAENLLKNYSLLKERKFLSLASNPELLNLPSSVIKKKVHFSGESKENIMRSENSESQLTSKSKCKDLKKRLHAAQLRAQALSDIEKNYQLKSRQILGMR
# Procedure, shortened: as §1
# [11] = biological target: ABL1(Q252H)-nonphosphorylated (Homo sapiens, UniProt P00519, Q252H)
# Procedure, shortened: as §1
# [12] = biological target: AKT2 (Homo sapiens, UniProt P31751)
# Procedure, shortened: as §1
# [13] = biological target: DRAK1 (Homo sapiens, UniProt Q9UEE5)
# Procedure, shortened: as §1
# [14] = biological target: BMPR2 (Homo sapiens, UniProt Q13873); conditions: 1 μM
# Procedure, shortened: as §1
# [15] = biological target: T8, HCK (Homo sapiens, UniProt P08631)
# T8 construct: purchased Ambit Kinomescan (contract screening)
# T8 sequence (P08631 whole entry): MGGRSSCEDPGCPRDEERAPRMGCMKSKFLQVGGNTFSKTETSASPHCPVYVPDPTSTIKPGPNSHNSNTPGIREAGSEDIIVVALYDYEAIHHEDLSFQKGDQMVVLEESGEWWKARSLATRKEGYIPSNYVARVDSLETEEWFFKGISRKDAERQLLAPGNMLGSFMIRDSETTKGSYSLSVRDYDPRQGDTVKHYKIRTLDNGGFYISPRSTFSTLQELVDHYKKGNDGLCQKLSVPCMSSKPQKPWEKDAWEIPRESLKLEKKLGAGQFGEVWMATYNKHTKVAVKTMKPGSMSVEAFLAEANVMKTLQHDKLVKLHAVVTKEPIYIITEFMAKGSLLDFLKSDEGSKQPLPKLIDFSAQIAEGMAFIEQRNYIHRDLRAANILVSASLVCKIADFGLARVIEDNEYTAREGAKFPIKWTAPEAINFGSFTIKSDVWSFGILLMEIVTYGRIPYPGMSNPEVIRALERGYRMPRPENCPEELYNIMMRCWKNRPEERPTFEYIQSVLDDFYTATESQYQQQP
# Procedure, shortened: as §1
# [16] = biological target: CIT (Homo sapiens, UniProt O14578); conditions: 1 μM
# Procedure, shortened: as §1
# [17] = biological target: PIP5K1A (Homo sapiens, UniProt Q99755)
# Procedure, shortened: as §1
# [18] = biological target: T9, EGFR(G719S) (Homo sapiens, UniProt P00533, G719S); conditions: 1 μM
# T9 construct: purchased Ambit (KINOMEscan Max panel service)
# Procedure, shortened: as §1
# [19] = biological target: CDK11 (Homo sapiens, UniProt Q9BWU1); conditions: 1 μM
# CDK11, sequence (Q9BWU1 whole entry): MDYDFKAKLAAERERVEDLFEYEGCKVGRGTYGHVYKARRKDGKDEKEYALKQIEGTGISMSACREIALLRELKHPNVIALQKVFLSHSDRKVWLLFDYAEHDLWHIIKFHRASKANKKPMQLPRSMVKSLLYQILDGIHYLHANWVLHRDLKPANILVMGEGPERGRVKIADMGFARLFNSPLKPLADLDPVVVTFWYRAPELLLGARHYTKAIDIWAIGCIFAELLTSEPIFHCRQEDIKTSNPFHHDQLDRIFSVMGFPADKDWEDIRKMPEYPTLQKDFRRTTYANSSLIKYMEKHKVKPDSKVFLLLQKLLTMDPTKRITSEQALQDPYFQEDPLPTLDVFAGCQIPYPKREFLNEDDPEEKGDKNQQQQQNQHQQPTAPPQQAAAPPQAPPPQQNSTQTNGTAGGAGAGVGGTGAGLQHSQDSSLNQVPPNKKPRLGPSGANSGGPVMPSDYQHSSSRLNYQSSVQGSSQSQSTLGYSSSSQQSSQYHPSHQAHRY
# Procedure, shortened: as §1
# [20] = biological target: MST1R (Homo sapiens, UniProt Q04912)
# Procedure, shortened: as §1
# [21] = biological target: PRKCQ (Homo sapiens, UniProt Q04759)
# Procedure, shortened: as §1
# [22] = biological target: T10, INSRR (Homo sapiens, UniProt P14616)
# T10 construct: purchased Ambit Kinomescan (contract panel, KINOMEscan Max)
# Procedure, shortened: as §1
# [23] = biological target: T11, KIT(V559D.T670I) (Homo sapiens, UniProt P10721, T670I/V559D)
# T11 construct: purchased Ambit Kinomescan (contract panel)
# T11 sequence (P10721 26-976 V559D/T670I): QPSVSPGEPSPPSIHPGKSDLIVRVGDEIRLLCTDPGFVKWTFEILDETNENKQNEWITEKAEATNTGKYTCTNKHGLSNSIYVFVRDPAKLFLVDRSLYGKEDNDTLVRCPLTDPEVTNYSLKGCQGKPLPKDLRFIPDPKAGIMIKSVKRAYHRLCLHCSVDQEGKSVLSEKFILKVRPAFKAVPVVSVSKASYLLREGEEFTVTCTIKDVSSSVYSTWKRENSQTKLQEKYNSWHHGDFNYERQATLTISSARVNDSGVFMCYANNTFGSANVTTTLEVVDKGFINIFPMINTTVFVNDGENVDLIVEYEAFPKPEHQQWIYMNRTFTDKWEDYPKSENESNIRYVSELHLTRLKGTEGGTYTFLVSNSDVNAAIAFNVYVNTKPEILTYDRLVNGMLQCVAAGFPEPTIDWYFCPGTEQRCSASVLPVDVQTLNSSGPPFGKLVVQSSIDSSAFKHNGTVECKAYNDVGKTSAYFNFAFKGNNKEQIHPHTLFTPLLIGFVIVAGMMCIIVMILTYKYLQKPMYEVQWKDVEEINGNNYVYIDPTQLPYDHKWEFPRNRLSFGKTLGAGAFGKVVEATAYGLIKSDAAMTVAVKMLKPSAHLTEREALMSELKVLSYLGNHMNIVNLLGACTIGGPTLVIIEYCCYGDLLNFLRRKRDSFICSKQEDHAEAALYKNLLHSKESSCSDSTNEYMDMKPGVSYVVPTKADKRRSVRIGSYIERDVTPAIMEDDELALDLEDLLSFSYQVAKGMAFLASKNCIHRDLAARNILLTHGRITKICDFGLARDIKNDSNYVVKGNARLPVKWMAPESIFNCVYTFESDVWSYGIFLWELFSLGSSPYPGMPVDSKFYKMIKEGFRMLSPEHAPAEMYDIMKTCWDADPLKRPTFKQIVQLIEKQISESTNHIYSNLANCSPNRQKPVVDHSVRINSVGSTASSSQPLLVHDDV
# Procedure, shortened: as §1
# [24] = biological target: BRAF(V600E) (Homo sapiens, UniProt P15056, V600E)
# Procedure, shortened: as §1
# [25] = biological target: AURKA (Homo sapiens, UniProt O14965)
# Procedure, shortened: as §1
# [26] = biological target: T12, SYK (Homo sapiens, UniProt P43405); conditions: 1 μM
# T12 construct: DNA tag (qPCR read-out)
# Procedure, shortened: as §1
# [27] = biological target: T13, NEK7 (Homo sapiens, UniProt Q8TDX7)
# T13 construct: DNA tag (qPCR read-out)
# Procedure, shortened: as §1
# [28] = biological target: T14, RPS6KA4(Kin.Dom.1-N-terminal) (Homo sapiens, UniProt O75676)
# T14 construct: RPS6KA4(Kin.Dom.1-N-terminal); DNA tag (qPCR read-out)
# Procedure, shortened: as §1
# [29] = biological target: T15, EGFR(L858R.T790M) (Homo sapiens, UniProt P00533, L858R/T790M); conditions: 1 μM
# T15 construct: purchased Ambit (KINOMEscan Max panel service)
# Procedure, shortened: as §1
# [30] = biological target: T16, CSK (Homo sapiens, UniProt P41240); conditions: 1 μM
# T16 construct: purchased Ambit (KINOMEscan Max panel service)
# Procedure, shortened: as §1
# [31] = biological target: T17, STK16 (Homo sapiens, UniProt O75716)
# T17 construct: DNA tag (qPCR read-out)
# Procedure, shortened: as §1
# [32] = biological target: T18, MET(Y1235D) (Homo sapiens, UniProt P08581, Y1235D); conditions: 1 μM
# T18 construct: purchased Ambit (KINOMEscan Max service)
# T18 sequence (P08581 25-1390 Y1235D): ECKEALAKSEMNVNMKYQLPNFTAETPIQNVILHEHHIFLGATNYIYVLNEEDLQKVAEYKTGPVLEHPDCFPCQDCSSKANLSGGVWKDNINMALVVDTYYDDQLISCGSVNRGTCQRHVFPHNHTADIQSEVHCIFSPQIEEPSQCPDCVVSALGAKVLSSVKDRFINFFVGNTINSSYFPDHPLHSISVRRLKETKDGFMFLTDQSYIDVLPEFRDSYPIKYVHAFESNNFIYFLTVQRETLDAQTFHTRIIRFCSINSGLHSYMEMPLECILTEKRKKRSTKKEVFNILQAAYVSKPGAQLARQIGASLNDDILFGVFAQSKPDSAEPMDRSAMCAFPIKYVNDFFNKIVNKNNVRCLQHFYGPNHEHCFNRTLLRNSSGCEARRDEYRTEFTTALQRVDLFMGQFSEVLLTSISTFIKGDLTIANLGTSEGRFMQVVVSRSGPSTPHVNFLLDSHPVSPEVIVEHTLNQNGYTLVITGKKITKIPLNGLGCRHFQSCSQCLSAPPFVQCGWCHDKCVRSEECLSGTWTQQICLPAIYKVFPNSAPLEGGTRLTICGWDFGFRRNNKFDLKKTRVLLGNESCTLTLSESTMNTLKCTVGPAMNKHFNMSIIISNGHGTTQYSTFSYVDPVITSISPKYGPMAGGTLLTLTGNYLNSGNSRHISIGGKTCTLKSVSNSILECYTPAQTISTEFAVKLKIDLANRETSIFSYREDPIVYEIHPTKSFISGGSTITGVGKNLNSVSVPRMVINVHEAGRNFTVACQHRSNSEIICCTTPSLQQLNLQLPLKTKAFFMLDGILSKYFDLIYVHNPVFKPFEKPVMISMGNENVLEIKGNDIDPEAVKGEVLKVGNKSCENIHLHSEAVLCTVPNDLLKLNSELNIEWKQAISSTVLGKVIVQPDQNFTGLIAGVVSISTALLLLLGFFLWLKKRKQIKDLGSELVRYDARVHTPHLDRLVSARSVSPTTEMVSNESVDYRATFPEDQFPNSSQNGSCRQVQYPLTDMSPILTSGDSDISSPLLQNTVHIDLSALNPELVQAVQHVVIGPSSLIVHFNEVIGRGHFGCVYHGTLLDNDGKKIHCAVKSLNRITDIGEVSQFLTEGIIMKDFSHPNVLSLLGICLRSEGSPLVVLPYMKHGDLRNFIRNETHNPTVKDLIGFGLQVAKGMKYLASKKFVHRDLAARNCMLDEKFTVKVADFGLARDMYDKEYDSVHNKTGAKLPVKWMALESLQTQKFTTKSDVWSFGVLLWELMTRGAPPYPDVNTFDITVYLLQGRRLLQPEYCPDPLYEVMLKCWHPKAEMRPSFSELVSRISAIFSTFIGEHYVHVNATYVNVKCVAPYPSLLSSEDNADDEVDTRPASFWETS
# Procedure, shortened: as §1
# [33] = biological target: PIK3CA(E545K) (Homo sapiens, UniProt P42336, E545K)
# Procedure, shortened: as §1
smiles,measurement,setting,value
"NCCCNc1nc2c(Br)c(Br)c(Br)c(Br)c2[nH]1 [Compound 11, N-(3-aminopropyl)-4,5,6,7-tetrabromo-1H-benzo[d]imidazol-2-amine]",remaining binding at 1 µM,[1],97%
same,remaining binding at 1 µM,[2],96%
same,remaining binding at 1 µM,[3],100%
same,remaining binding at 1 µM,[4],98%
same,% binding,[5],72%
same,% binding,[6],100%
same,remaining binding at 1 µM,[7],96%
same,% binding,[8],86%
same,remaining binding at 1 µM,[9],100%
same,remaining binding at 1 µM,[10],99%
same,remaining binding at 1 µM,[11],95%
same,remaining binding at 1 µM,[12],99%
same,remaining binding at 1 µM,[13],75%
same,% binding,[14],99%
same,remaining binding at 1 µM,[15],98%
same,% binding,[16],93%
same,remaining binding at 1 µM,[17],75%
same,% binding,[18],100%
same,% binding,[19],74%
same,remaining binding at 1 µM,[20],100%
same,remaining binding at 1 µM,[21],77%
same,remaining binding at 1 µM,[22],100%
same,remaining binding at 1 µM,[23],100%
same,remaining binding at 1 µM,[24],96%
same,remaining binding at 1 µM,[25],96%
same,% binding,[26],100%
same,remaining binding at 1 µM,[27],86%
same,remaining binding at 1 µM,[28],55%
same,% binding,[29],100%
same,% binding,[30],100%
same,remaining binding at 1 µM,[31],87%
same,% binding,[32],70%
same,remaining binding at 1 µM,[33],92%
